Assay results from ChEMBL document CHEMBL4052714, “Synthesis and antibacterial activity of novel 4″-O-(1-aralkyl-1,2,3-triazol-4-methyl-carbamoyl) azithromycin analogs” (2017).
≈ marks a conversion by molar mass, not a printed value.

Tests used:
Assay type in all cases: functional
[1] = test system: Streptococcus pyogenes; assay: Antibacterial activity against erythromycin-resistant Streptococcus pyogenes isolate R2
[2] = test system: Staphylococcus aureus; assay: Antibacterial activity against erythromycin-susceptible Staphylococcus aureus ATCC 25923
[3] = test system: Pseudomonas aeruginosa; assay: Antibacterial activity against Pseudomonas aeruginosa ATCC 27853
[4] = test system: Streptococcus pneumoniae; assay: Antibacterial activity against erythromycin-resistant Streptococcus pneumoniae B1 expressing ermB gene
[5] = test system: Streptococcus pneumoniae; assay: Antibacterial activity against erythromycin-susceptible Streptococcus pneumoniae ATCC 49619
[6] = test system: Streptococcus pyogenes; assay: Antibacterial activity against erythromycin-susceptible Streptococcus pyogenes isolate S2
[7] = test system: Escherichia coli; assay: Antibacterial activity against Escherichia coli ATCC 25922
[8] = test system: Staphylococcus aureus; assay: Antibacterial activity against methicillin-susceptible Staphylococcus aureus ATCC 29213
[9] = test system: Streptococcus pneumoniae; assay: Antibacterial activity against erythromycin-resistant Streptococcus pneumoniae A22072 expressing mefA gene
[10] = test system: Streptococcus pneumoniae; assay: Antibacterial activity against erythromycin-resistant Streptococcus pneumoniae AB11 expressing ermB/mefA gene

Row | SMILES | MIC [1] | MIC [2] | MIC [3] | MIC [4] | MIC [5] | MIC [6] | MIC [7] | MIC [8] | MIC [9] | MIC [10]
1 | CC[C@H]1OC(=O)[C@H](C)[C@@H](O[C@H]2C[C@@](C)(OC)[C@@H](OC(=O)NCc3cn(Cc4ccccc4F)nn3)[C@H](C)O2)[C@H](C)[C@@H](O[C@@H]2O[C@H](C)C[C@H](N(C)C)[C@H]2O)[C@](C)(O)C[C@@H](C)CN(C)[C@H](C)[C@H]2OC(=O)O[C@@]21C | 128 µg/mL (≈ 127 µM) | 4 µg/mL (≈ 3.97 µM) | 64 µg/mL (≈ 63.5 µM) | 2 µg/mL (≈ 1.99 µM) | 0.5 µg/mL (≈ 0.496 µM) | 0.125 µg/mL (≈ 0.124 µM) | 128 µg/mL (≈ 127 µM) | 32 µg/mL (≈ 31.8 µM) | 1 µg/mL (≈ 0.993 µM) | 0.25 µg/mL (≈ 0.248 µM)
2 | CC[C@H]1OC(=O)[C@H](C)[C@@H](O[C@H]2C[C@@](C)(OC)[C@@H](OC(=O)NCc3cn(Cc4ccc(Cl)cc4)nn3)[C@H](C)O2)[C@H](C)[C@@H](O[C@@H]2O[C@H](C)C[C@H](N(C)C)[C@H]2O)[C@](C)(O)C[C@@H](C)CN(C)[C@H](C)[C@H]2OC(=O)O[C@@]21C | 64 µg/mL (≈ 62.5 µM) | 4 µg/mL (≈ 3.91 µM) | 64 µg/mL (≈ 62.5 µM) | 8 µg/mL (≈ 7.82 µM) | 1 µg/mL (≈ 0.977 µM) | 0.125 µg/mL (≈ 0.122 µM) | 64 µg/mL (≈ 62.5 µM) | 32 µg/mL (≈ 31.3 µM) | 1 µg/mL (≈ 0.977 µM) | 4 µg/mL (≈ 3.91 µM)
3 | CC[C@H]1OC(=O)[C@H](C)[C@@H](O[C@H]2C[C@@](C)(OC)[C@@H](OC(=O)NCc3cn(Cc4ccc(C)cc4)nn3)[C@H](C)O2)[C@H](C)[C@@H](O[C@@H]2O[C@H](C)C[C@H](N(C)C)[C@H]2O)[C@](C)(O)C[C@@H](C)CN(C)[C@H](C)[C@@H](OC(=O)NCc2ccccc2)[C@]1(C)O | 32 µg/mL (≈ 28.8 µM) | 0.5 µg/mL (≈ 0.45 µM) | 32 µg/mL (≈ 28.8 µM) | 0.25 µg/mL (≈ 0.225 µM) | 0.125 µg/mL (≈ 0.113 µM) | < 0.002 µg/mL | 32 µg/mL (≈ 28.8 µM) | 16 µg/mL (≈ 14.4 µM) | 0.125 µg/mL (≈ 0.113 µM) | 0.25 µg/mL (≈ 0.225 µM)
4 | CC[C@H]1OC(=O)[C@H](C)[C@@H](O[C@H]2C[C@@](C)(OC)[C@@H](OC(=O)NCc3cn(Cc4ccccc4)nn3)[C@H](C)O2)[C@H](C)[C@@H](O[C@@H]2O[C@H](C)C[C@H](N(C)C)[C@H]2O)[C@](C)(O)C[C@@H](C)CN(C)[C@H](C)[C@@H](OC(=O)NCc2ccncc2)[C@]1(C)O | 32 µg/mL (≈ 29.2 µM) | 1 µg/mL (≈ 0.911 µM) | 64 µg/mL (≈ 58.3 µM) | 0.125 µg/mL (≈ 0.114 µM) | 0.5 µg/mL (≈ 0.456 µM) | 0.03 µg/mL (≈ 0.0273 µM) | 32 µg/mL (≈ 29.2 µM) | 32 µg/mL (≈ 29.2 µM) | 0.06 µg/mL (≈ 0.0547 µM) | 0.25 µg/mL (≈ 0.228 µM)
5 | CC[C@H]1OC(=O)[C@H](C)[C@@H](O[C@H]2C[C@@](C)(OC)[C@@H](OC(=O)NCc3cn(Cc4cccc(Cl)c4)nn3)[C@H](C)O2)[C@H](C)[C@@H](O[C@@H]2O[C@H](C)C[C@H](N(C)C)[C@H]2O)[C@](C)(O)C[C@@H](C)CN(C)[C@H](C)[C@H]2OC(=O)O[C@@]21C | 16 µg/mL (≈ 15.6 µM) | 4 µg/mL (≈ 3.91 µM) | 64 µg/mL (≈ 62.5 µM) | 4 µg/mL (≈ 3.91 µM) | 1 µg/mL (≈ 0.977 µM) | 0.06 µg/mL (≈ 0.0586 µM) | 128 µg/mL (≈ 125 µM) | 32 µg/mL (≈ 31.3 µM) | 0.5 µg/mL (≈ 0.488 µM) | 1 µg/mL (≈ 0.977 µM)
6 | CC[C@H]1OC(=O)[C@H](C)[C@@H](O[C@H]2C[C@@](C)(OC)[C@@H](OC(=O)NCc3cn(Cc4ccccc4)nn3)[C@H](C)O2)[C@H](C)[C@@H](O[C@@H]2O[C@H](C)C[C@H](N(C)C)[C@H]2O)[C@](C)(O)C[C@@H](C)CN(C)[C@H](C)[C@@H](OC(=O)NCCc2ccccc2)[C@]1(C)O | 32 µg/mL (≈ 28.8 µM) | 0.25 µg/mL (≈ 0.225 µM) | 8 µg/mL (≈ 7.2 µM) | 0.25 µg/mL (≈ 0.225 µM) | 0.125 µg/mL (≈ 0.113 µM) | < 0.002 µg/mL | 16 µg/mL (≈ 14.4 µM) | 16 µg/mL (≈ 14.4 µM) | 0.125 µg/mL (≈ 0.113 µM) | 0.25 µg/mL (≈ 0.225 µM)
7 | CC[C@H]1OC(=O)[C@H](C)[C@@H](O[C@H]2C[C@@](C)(OC)[C@@H](OC(=O)NCc3cn(Cc4ccc(F)cc4)nn3)[C@H](C)O2)[C@H](C)[C@@H](O[C@@H]2O[C@H](C)C[C@H](N(C)C)[C@H]2O)[C@](C)(O)C[C@@H](C)CN(C)[C@H](C)[C@H]2OC(=O)O[C@@]21C | 32 µg/mL (≈ 31.8 µM) | 4 µg/mL (≈ 3.97 µM) | 64 µg/mL (≈ 63.5 µM) | 8 µg/mL (≈ 7.94 µM) | 1 µg/mL (≈ 0.993 µM) | 0.125 µg/mL (≈ 0.124 µM) | 128 µg/mL (≈ 127 µM) | 32 µg/mL (≈ 31.8 µM) | 1 µg/mL (≈ 0.993 µM) | 4 µg/mL (≈ 3.97 µM)
8 | CC[C@H]1OC(=O)[C@H](C)[C@@H](O[C@H]2C[C@@](C)(OC)[C@@H](OC(=O)NCc3cn(Cc4c(Cl)cccc4Cl)nn3)[C@H](C)O2)[C@H](C)[C@@H](O[C@@H]2O[C@H](C)C[C@H](N(C)C)[C@H]2O)[C@](C)(O)C[C@@H](C)CN(C)[C@H](C)[C@@H](OC(=O)NCc2ccccc2)[C@]1(C)O | 64 µg/mL (≈ 54.9 µM) | 0.25 µg/mL (≈ 0.215 µM) | 32 µg/mL (≈ 27.5 µM) | 0.25 µg/mL (≈ 0.215 µM) | 0.125 µg/mL (≈ 0.107 µM) | < 0.002 µg/mL | 32 µg/mL (≈ 27.5 µM) | 16 µg/mL (≈ 13.7 µM) | 0.25 µg/mL (≈ 0.215 µM) | 0.25 µg/mL (≈ 0.215 µM)
9 | CC[C@H]1OC(=O)[C@H](C)[C@@H](O[C@H]2C[C@@](C)(OC)[C@@H](OC(=O)NCc3cn(Cc4ccc(Cl)cc4Cl)nn3)[C@H](C)O2)[C@H](C)[C@@H](O[C@@H]2O[C@H](C)C[C@H](N(C)C)[C@H]2O)[C@](C)(O)C[C@@H](C)CN(C)[C@H](C)[C@H]2OC(=O)O[C@@]21C | 32 µg/mL (≈ 30.2 µM) | 4 µg/mL (≈ 3.78 µM) | 64 µg/mL (≈ 60.5 µM) | 4 µg/mL (≈ 3.78 µM) | 1 µg/mL (≈ 0.945 µM) | 0.125 µg/mL (≈ 0.118 µM) | 128 µg/mL (≈ 121 µM) | 32 µg/mL (≈ 30.2 µM) | 1 µg/mL (≈ 0.945 µM) | 2 µg/mL (≈ 1.89 µM)
10 | CC[C@H]1OC(=O)[C@H](C)[C@@H](O[C@H]2C[C@@](C)(OC)[C@@H](OC(=O)NCc3cn(C4CCCCC4)nn3)[C@H](C)O2)[C@H](C)[C@@H](O[C@@H]2O[C@H](C)C[C@H](N(C)C)[C@H]2O)[C@](C)(O)C[C@@H](C)CN(C)[C@H](C)[C@H]2OC(=O)O[C@@]21C | 32 µg/mL (≈ 32.6 µM) | 16 µg/mL (≈ 16.3 µM) | 64 µg/mL (≈ 65.2 µM) | 8 µg/mL (≈ 8.15 µM) | 1 µg/mL (≈ 1.02 µM) | 0.25 µg/mL (≈ 0.255 µM) | 128 µg/mL (≈ 130 µM) | 64 µg/mL (≈ 65.2 µM) | 1 µg/mL (≈ 1.02 µM) | 4 µg/mL (≈ 4.08 µM)
11 | CC[C@H]1OC(=O)[C@H](C)[C@@H](O[C@H]2C[C@@](C)(OC)[C@@H](OC(=O)NCc3cn(Cc4cccc(F)c4)nn3)[C@H](C)O2)[C@H](C)[C@@H](O[C@@H]2O[C@H](C)C[C@H](N(C)C)[C@H]2O)[C@](C)(O)C[C@@H](C)CN(C)[C@H](C)[C@H]2OC(=O)O[C@@]21C | 128 µg/mL (≈ 127 µM) | 4 µg/mL (≈ 3.97 µM) | 64 µg/mL (≈ 63.5 µM) | 4 µg/mL (≈ 3.97 µM) | 1 µg/mL (≈ 0.993 µM) | 0.125 µg/mL (≈ 0.124 µM) | 128 µg/mL (≈ 127 µM) | 32 µg/mL (≈ 31.8 µM) | 4 µg/mL (≈ 3.97 µM) | 0.5 µg/mL (≈ 0.496 µM)
12 | CC[C@H]1OC(=O)[C@H](C)[C@@H](O[C@H]2C[C@@](C)(OC)[C@@H](OC(=O)NCc3cn(Cc4ccccc4Cl)nn3)[C@H](C)O2)[C@H](C)[C@@H](O[C@@H]2O[C@H](C)C[C@H](N(C)C)[C@H]2O)[C@](C)(O)C[C@@H](C)CN(C)[C@H](C)[C@H]2OC(=O)O[C@@]21C | 16 µg/mL (≈ 15.6 µM) | 4 µg/mL (≈ 3.91 µM) | 64 µg/mL (≈ 62.5 µM) | 8 µg/mL (≈ 7.82 µM) | 1 µg/mL (≈ 0.977 µM) | 0.06 µg/mL (≈ 0.0586 µM) | 128 µg/mL (≈ 125 µM) | 32 µg/mL (≈ 31.3 µM) | 2 µg/mL (≈ 1.95 µM) | 4 µg/mL (≈ 3.91 µM)
13 | CC[C@H]1OC(=O)[C@H](C)[C@@H](O[C@H]2C[C@@](C)(OC)[C@@H](OC(=O)NCc3cn(Cc4ccccc4)nn3)[C@H](C)O2)[C@H](C)[C@@H](O[C@@H]2O[C@H](C)C[C@H](N(C)C)[C@H]2O)[C@](C)(O)C[C@@H](C)CN(C)[C@H](C)[C@@H](OC(=O)NCc2ccccc2)[C@]1(C)O | 32 µg/mL (≈ 29.2 µM) | 0.016 µg/mL (≈ 0.0146 µM) | 32 µg/mL (≈ 29.2 µM) | 0.25 µg/mL (≈ 0.228 µM) | 0.125 µg/mL (≈ 0.114 µM) | < 0.002 µg/mL | 16 µg/mL (≈ 14.6 µM) | 16 µg/mL (≈ 14.6 µM) | 0.25 µg/mL (≈ 0.228 µM) | 0.25 µg/mL (≈ 0.228 µM)
14 | CC[C@H]1OC(=O)[C@H](C)[C@@H](O[C@H]2C[C@@](C)(OC)[C@@H](OC(=O)NCc3cn(Cc4ccc(Cl)cc4)nn3)[C@H](C)O2)[C@H](C)[C@@H](O[C@@H]2O[C@H](C)C[C@H](N(C)C)[C@H]2O)[C@](C)(O)C[C@@H](C)CN(C)[C@H](C)[C@@H](OC(=O)NCc2ccccc2)[C@]1(C)O | 32 µg/mL (≈ 28.3 µM) | 0.25 µg/mL (≈ 0.221 µM) | 32 µg/mL (≈ 28.3 µM) | 0.25 µg/mL (≈ 0.221 µM) | 0.25 µg/mL (≈ 0.221 µM) | < 0.002 µg/mL | 32 µg/mL (≈ 28.3 µM) | 16 µg/mL (≈ 14.1 µM) | 0.125 µg/mL (≈ 0.111 µM) | 0.25 µg/mL (≈ 0.221 µM)
